In ChEMBL document CHEMBL4425168, “Dehydrozingerone Inspired Styryl Hydrazine Thiazole Hybrids as Promising Class of Antimycobacterial Agents” (ACS Med Chem Lett, 2016):
In brackets after ≈: the same amount, converted by molar mass.

What was measured:
Format in all cases: functional, organism-based
[1] = test system: Mycobacterium tuberculosis; experiment: Antitubercular activity against Mycobacterium tuberculosis H37Rv INH-R1 harboring katG Y155 mutant after 5 days
[2] = test system: Mycobacterium tuberculosis; experiment: Antitubercular activity against Mycobacterium tuberculosis H37Rv RIF-R1 harboring nrpoB S522L mutant after 5 days
[3] = test system: Mycobacterium tuberculosis; experiment: Antitubercular activity against Mycobacterium tuberculosis H37Rv FQ-R1 harboring gyrB D94N mutant after 5 days

Row | Structure (SMILES) | IC50 [1] | IC90 [1] | MIC [1] | IC50 [2] | IC90 [2] | MIC [2] | IC50 [3] | IC90 [3] | MIC [3]
1 | C[C@H]1COc2c(N3CCN(C)CC3)c(F)cc3c(=O)c(C(=O)O)cn1c23.C[C@H]1COc2c(N3CCN(C)CC3)c(F)cc3c(=O)c(C(=O)O)cn1c23.O [LEVOFLOXACIN] | 0.64 µM | 1.4 µM | 1.2 µM | 0.59 µM | 0.91 µM | 0.76 µM | 12 µM | 22 µM | 20 µM
2 | CO[C@H]1/C=C/O[C@@]2(C)Oc3c(C)c(O)c4c(O)c(c(/C=N/N5CCN(C)CC5)c(O)c4c3C2=O)NC(=O)/C(C)=C\C=C\[C@H](C)[C@H](O)[C@@H](C)[C@@H](O)[C@@H](C)[C@H](OC(C)=O)[C@@H]1C [RIFAMPIN] | 0.0084 µM | 0.022 µM | 0.018 µM (≈ 0.0148 µg/mL) | 1.2 µM | 2.3 µM | 2 µM (≈ 1.65 µg/mL) | 0.013 µM | 0.039 µM | 0.027 µM (≈ 0.0222 µg/mL)
3 | COc1ccc(/C=C/C(C)=N/Nc2nc(-c3c(OC)cccc3OC)cs2)cc1OC | 9.1 µM | > 25 µM | 32 µM (≈ 14.1 µg/mL) | 7 µM | 19 µM | 17 µM (≈ 7.47 µg/mL) | 13 µM | > 25 µM | 33 µM (≈ 14.5 µg/mL)
4 | NNC(=O)c1ccncc1 [ISONIAZID] | > 200 µM | > 200 µM | >200 µM | 0.15 µM | 0.21 µM | 0.17 µM (≈ 0.0233 µg/mL) | 0.36 µM | 0.47 µM | 0.35 µM (≈ 0.048 µg/mL)
5 | COc1ccc(/C=C/C(C)=N/Nc2nc(-c3ccc(OC)c(OC)c3)cs2)cc1OC | 12 µM | > 200 µM | 24 µM (≈ 10.5 µg/mL) | 9.2 µM | 27 µM | 28 µM (≈ 12.3 µg/mL) | 18 µM | > 200 µM | 30 µM (≈ 13.2 µg/mL)
6 | COc1ccc(/C=C/C(C)=N/NC(N)=S)cc1OC | 1.3 µM | 6.6 µM | 5.3 µM (≈ 1.48 µg/mL) | 1.1 µM | 4.6 µM | 4 µM (≈ 1.12 µg/mL) | 2.8 µM | 16 µM | 17 µM (≈ 4.75 µg/mL)
7 | COc1ccc(/C=C/C(C)=N/Nc2nc(-c3ccc(N)cc3)cs2)cc1OC | 0.68 µM | 3.8 µM | 3.2 µM (≈ 1.26 µg/mL) | 0.54 µM | 2.6 µM | 2.2 µM (≈ 0.868 µg/mL) | 2.3 µM | 33 µM | 21 µM (≈ 8.28 µg/mL)
8 | COc1ccc(-c2csc(N/N=C(C)/C=C/c3ccc(OC)c(OC)c3)n2)cc1 | 12 µM | > 50 µM | 15 µM (≈ 6.14 µg/mL) | 11 µM | > 50 µM | 25 µM (≈ 10.2 µg/mL) | 23 µM | > 50 µM | 22 µM (≈ 9.01 µg/mL)
